Article PMC4122966, “Novel VCP modulators mitigate major pathologies of rd10, a mouse model of retinitis pigmentosa” (Scientific Reports, 2014)

Tested on: rd10 mice
Assay: rd10 mouse model of retinitis pigmentosa (SD-OCT, electroretinogram, histology, electron microscopy, western blot)
Type: in vivo
Conditions: 21-day-old, 50 mg/kg daily i.p. from day 7, vs control
Experimental: Starting 7 days after birth, KUS121 or KUS187 was administered daily (50 mg/kg) by intraperitoneal injection. […] To test the visual function of the mice, dark-adapted electroretinograms were recorded. The amplitude of the a-wave, which represents visual function of photoreceptors, was smaller in the control mice than in the KUS-treated mice (Supplementary Fig. 5b and c). The peak latency of the a-wave, which negatively correlates with visual function of photoreceptors, was delayed in the control mice as compared with the KUS-treated mice (Supplementary Fig. 5d). At age 25 days, the thinning of the outer nuclear layer (ONL) was clearly observed in the control mice (Fig. 5a). The outer nuclear layer and the junction line between the inner segment and outer segment (arrow heads in Fig. 5a), which is generally considered to be positively associated with visual function, were clearly detected in the KUS-treated but not in control mice. […] At age 29 days, the photoreceptor layer was barely detected in SD-OCT images, and electroretinogram records were almost flat in control mice. […]
Spectral-domain optical coherence tomography (SD-OCT) examinations using Multiline OCT (Heidelberg Engineering, Heidelberg, Germany) were performed[33] in rd10 mice at ages of 21, 25, 29, and 33days. Total retinal thickness (from inner limiting membrane to Bruch membrane) in rd10 mice was measured using volume scan images[33] within a circle 0.366 mm in diameter, the center of which was adjusted to the center of the optic nerve head. […]
Electroretinogram recording was performed to assess the visual function of rd10 mice at ages of 21, 25, 29, and 33 days. […] Electroretinograms were recorded using a gold loop corneal electrode with a light-emitting diode (Mayo Corp., Inazawa, Japan). […] The electroretinogram response signals were amplified, digitized at 10 kHz with a band-pass filter of 0.3 to 500 Hz, and analyzed (PowerLab 2/25; AD instruments, New South Wales, Australia). […]

Compound: Cc1cc(F)ccc1-c1ccc(/N=N/c2cc(S(=O)(=O)O)c3ccccc3c2N)cn1 [KUS121]
- mean amplitude of the a-wave, dark-adapted electroretinogram: larger than that in control rd10 mice
